The source of these data is BindingDB's records for doi:10.1021/jm00096a017 (Kyowa Hakko Kogyo, 1992).

Molecules are shown by their SMILES.

This assay in a line: Compound was tested for its binding affinity at Thromboxane A2/ Prostaglandin H2 receptor by measuring its ability to displace [3H]U-46619 from guinea pig platelets.

The compound `O=C(O)c1ccc2c(c1)/C(=C/CNS(=O)(=O)c1ccccc1)c1ccccc1CO2` displayed a Ki of 0.011 µM. On to `O=C(O)c1ccc2c(c1)/C(=C/Cn1cnc3cc(F)ccc31)c1ccccc1CO2`, for which the Ki was determined as 0.0083 µM. Under `O=C(O)c1ccc2c(c1)/C(=C\Cn1cnc3ccccc31)c1ccccc1CO2` stands 0.015 µM.

`O=C(O)c1ccc2c(c1)/C(=C/Cn1cnc3cc(C(F)(F)F)ccc31)c1ccccc1CO2` displayed a Ki of 0.0022 µM. The result for `COc1ccc2c(c1)ncn2C/C=C1\c2ccccc2COc2ccc(C(=O)O)cc21` reads 0.0032 µM. The compound `Cc1cc2ncn(C/C=C3\c4cc(C(=O)O)ccc4COc4ccccc43)c2cc1C` yielded a Ki of 1.3 µM.

The compound `COc1ccc2ncn(C/C=C3\c4ccccc4COc4ccc(C(=O)O)cc43)c2c1` showed a Ki of 0.012 µM. Against the preceding compound, the Ki is about 110-fold lower. Under `O=C(O)c1ccc2c(c1)/C(=C/Cn1cnc(-c3ccccc3)c1-c1ccccc1)c1ccccc1CO2` stands 0.164 µM. Under `COc1cc(OC)c2ncn(C/C=C3\c4ccccc4COc4ccc(C(=O)O)cc43)c2c1` stands 0.088 µM; under `O=C(O)c1ccc2c(c1)/C(=C/Cn1cnc3cc([N+](=O)[O-])ccc31)c1ccccc1CO2`, 0.0018 µM; under `Cc1ccc2c(ncn2C/C=C2\c3ccccc3COc3ccc(C(=O)O)cc32)c1C`, 0.0036 µM. `Cc1cc2ncn(C/C=C3\c4ccccc4COc4ccc(C(=O)O)cc43)c2cc1C` [11-[2-(5,6-Dimethyl-benzoimidazol-1-yl)-ethylidene]-6,11-dihydro-dibenzo[b,e]oxepine-2-carboxylic acid (0.5H2O)] yielded a Ki of 0.0027 µM. In turn, `O=C(O)c1ccc2c(c1)/C(=C/Cn1cnc3cc(C(=O)O)ccc31)c1ccccc1CO2` showed a Ki of 0.03 µM. The result for `Cc1cc2ncn(C/C=C3\c4ccccc4COc4ccc(CC(=O)O)cc43)c2cc1C` reads 0.063 µM.

Compound `O=C(O)c1ccc2c(c1)/C(=C/Cn1cnc3ccc(C(O)c4ccccc4)cc31)c1ccccc1CO2` (centres undefined) came in with a Ki of 0.017 µM.

`O=C(O)c1ccc2c(c1)/C(=C/Cn1cnc3cc(C(=O)NCc4ccccc4)ccc31)c1ccccc1CO2` displayed a Ki of 0.00091 µM.

In turn, `Cc1ccc2ncn(C/C=C3\c4ccccc4COc4ccc(C(=O)O)cc43)c2c1` came in with a Ki of 0.023 µM.

For the compound `Cc1ccc2c(c1)ncn2C/C=C1\c2ccccc2COc2ccc(C(=O)O)cc21`, the affinity corresponds to a Ki of 0.015 µM.

In turn, `O=C(O)c1ccc2c(c1)/C(=C/Cn1cnc3cc4ccccc4cc31)c1ccccc1CO2` returned a Ki of 0.28 µM. The result for `O=C(O)c1ccc2c(c1)/C(=C/Cn1cnc3cc(Cl)ccc31)c1ccccc1CO2` reads 0.006 µM. Under `Cc1cccc2c1ncn2C/C=C1\c2ccccc2COc2ccc(C(=O)O)cc21` stands 0.017 µM; under `COc1cc(OC)c2c(c1)ncn2C/C=C1\c2ccccc2COc2ccc(C(=O)O)cc21`, 0.0061 µM. Under `Cc1cc2ncn(C/C=C3\c4ccccc4COc4cc(C(=O)O)ccc43)c2cc1C` stands 1.8 µM; under `O=C(O)c1ccc2c(c1)/C(=C/Cn1cnc3cc4c(cc31)OCO4)c1ccccc1CO2`, 0.0027 µM. Compound `Cc1cc2ncn(CCC3c4ccccc4COc4ccc(C(=O)O)cc43)c2cc1C` (centres undefined) displayed a Ki of 0.018 µM. Under `O=C(O)c1ccc2c(c1)/C(=C/Cn1cnc3ccc(Cl)cc31)c1ccccc1CO2` stands 0.015 µM.

On to `COc1cc2ncn(C/C=C3\c4ccccc4COc4ccc(C(=O)O)cc43)c2cc1OC`, for which the Ki worked out at 0.0034 µM. The result for `Cc1cc2ncn(C/C=C3/c4ccccc4COc4ccc(C(=O)O)cc43)c2cc1C` reads 0.064 µM; that for `O=C(O)c1ccc2c(c1)/C(=C/Cn1cnc3cc(C(O)c4ccccc4)ccc31)c1ccccc1CO2` (centres undefined), 0.0061 µM.
